Publication PMC10706475 (International Journal of Molecular Sciences, 2023)
Where “and” joins values, the source holds several entries; their conditions need not be identical. Identical values can stand only once. Like-named read-outs stand apart in the source and are kept apart here.

How the values were obtained:
Non-protein thiol (NPT) = assay type: in vivo, mice
Sigma1 = target: T1, Sigma1 (Rattus norvegicus, UniProt Q9R0C9); experiment: radioligand binding, Sigma1; settings: [3H] Pentazocine (+), rat brain; read-out: Sigma 1 binding affinity (Ki)
T1 construct: Sigma1; Pentazocine (+); Rat; Brain; from tissue; host or cells: rat brain

[1] = in vivo activity (i.p.), test not specified; settings: 100 and 300 mg/kg (i.p.); test not named
Procedure: Sodium metavanadate (NaO3V) (Sigma, St. Louis, MO, USA) was utilized in this study. Novel NMDA-Receptor antagonist, ZA-II-05, is a bicyclic aryl cyclohexylamine, designed and synthesized in our lab, fully active at 100 and 300 mg/kg (i.p.). Several tests established the safety of the compound at dosages envisioned in this study.

[2] = target: T2, Serotonin Transporter (SERT) (Homo sapiens, UniProt P31645); experiment: radioligand binding, Serotonin Transporter; settings: [3H] Citalopram, cloned human transporter; read-out: SERT binding affinity (Ki)
T2 construct: expressed in transfected cells

Vitamin C = assay type: in vivo, mice
total thiol (PT) = assay type: in vivo, mice
GluN1/GluN2A = GluN1/GluN2A (Rattus norvegicus, UniProt P35439+Q00959); experiment: [3H] MK801 binding assay, transfected HEK293 cells, GluN1/GluN2A
[3] = tested on: organotypic rat hippocampal slices; assay type: cell-based
[4] = tested on: dendritic density and arborizations; assay type: in vivo, mice; settings: coadministration of ZA-II-05 with […], vs […]-treated group
[5] = tested on: tumor necrosis factor-alpha (TNF-α)
H2O2 = tested on: H2O2; design: species or system mice; settings: mouse, in vivo
µ-opioid receptors (MOR) = target: T3, µ-opioid receptors (MOR) (Homo sapiens, UniProt P35372); experiment: radioligand binding, µ-opioid receptor; settings: read-out: μ-Opiod Receptor Ki
T3 construct: expressed in transfected cells

[6] = target: T4, Norepinephrine Transporter (NET) (Homo sapiens, UniProt P23975); experiment: radioligand binding, Norepinephrine Transporter; settings: [3H] Nisoxetine, cloned human transporter; read-out: NET binding affinity (Ki)
T4 construct: expressed in transfected cells

NeuN = assay type: in vivo, mice
GFAP = tested on: GFAP; design: species or system mice; settings: mouse, in vivo
nitric oxide (NO) = assay type: in vivo, mice
Dopamine 1 (D1) = target: T5, Dopamine 1 (D1) (Homo sapiens, UniProt P21728); experiment: radioligand binding, Dopamine 1 (D1); settings: [3H] SCH23390, cloned human receptor; read-out: D1 binding affinity (Ki)
T5 construct: expressed in transfected cells

5-HT2A = target: T6, 5-HT2A (Homo sapiens, UniProt P28223); experiment: radioligand binding, 5-HT2A; settings: [3H] Ketanserin, cloned human receptor; read-out: 5HT2A binding affinity (Ki)
T6 construct: expressed in transfected cells

[7] = tested on: Myelin Basic Protein (MBP); design: species or system mice; settings: mouse, in vivo
κ-opioid receptors (KOR) = target: T7, κ-opioid receptors (KOR) (Rattus norvegicus, UniProt P34975); experiment: biochemical; assay type: binding; settings: read-out: κ-Opiod Receptor Ki
T7 construct: expressed in transfected cells

[8] = target: T8, Dopamine Transporter (DAT) (Homo sapiens, UniProt Q01959); experiment: radioligand binding, Dopamine Transporter; settings: [3H] WIN35428, cloned human transporter
T8 construct: expressed in transfected cells

IBA1 = assay type: in vivo, mice; settings: ZA-II-05 treated groups vs […] group
D2 = target: T9, D2 (Homo sapiens, UniProt P14416); experiment: radioligand binding, D2; settings: [3H] N-Methylspiperone, cloned human receptor; read-out: D2 binding affinity (Ki)
T9 construct: expressed in transfected cells

[9] = locomotion and motor coordination; assay type: in vivo, mice; settings: treatment with ZA-II-05 in vanadium-induced neurotoxicity
Sigma2 = target: T10, Sigma2 (Rattus norvegicus, UniProt Q5U3Y7); experiment: radioligand binding, Sigma2
T10 construct: Sigma2; DTG; Rat; PC12; endogenous in cells; host or cells: PC12

[10] = ZA-II-05 only 100 mg/kg i.p. every 72 h, one month, mouse brain

T7 sequence (P34975 whole entry): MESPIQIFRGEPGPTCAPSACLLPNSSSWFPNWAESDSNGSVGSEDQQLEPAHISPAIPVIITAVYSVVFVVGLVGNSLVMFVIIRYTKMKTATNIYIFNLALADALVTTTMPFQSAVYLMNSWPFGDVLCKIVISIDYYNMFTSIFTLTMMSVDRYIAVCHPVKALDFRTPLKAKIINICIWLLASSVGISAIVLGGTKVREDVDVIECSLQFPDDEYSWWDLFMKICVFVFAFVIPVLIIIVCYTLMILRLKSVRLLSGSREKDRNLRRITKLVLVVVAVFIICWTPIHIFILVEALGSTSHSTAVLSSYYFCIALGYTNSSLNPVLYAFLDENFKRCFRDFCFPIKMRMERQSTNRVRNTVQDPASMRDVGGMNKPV
T2 sequence (P31645 whole entry): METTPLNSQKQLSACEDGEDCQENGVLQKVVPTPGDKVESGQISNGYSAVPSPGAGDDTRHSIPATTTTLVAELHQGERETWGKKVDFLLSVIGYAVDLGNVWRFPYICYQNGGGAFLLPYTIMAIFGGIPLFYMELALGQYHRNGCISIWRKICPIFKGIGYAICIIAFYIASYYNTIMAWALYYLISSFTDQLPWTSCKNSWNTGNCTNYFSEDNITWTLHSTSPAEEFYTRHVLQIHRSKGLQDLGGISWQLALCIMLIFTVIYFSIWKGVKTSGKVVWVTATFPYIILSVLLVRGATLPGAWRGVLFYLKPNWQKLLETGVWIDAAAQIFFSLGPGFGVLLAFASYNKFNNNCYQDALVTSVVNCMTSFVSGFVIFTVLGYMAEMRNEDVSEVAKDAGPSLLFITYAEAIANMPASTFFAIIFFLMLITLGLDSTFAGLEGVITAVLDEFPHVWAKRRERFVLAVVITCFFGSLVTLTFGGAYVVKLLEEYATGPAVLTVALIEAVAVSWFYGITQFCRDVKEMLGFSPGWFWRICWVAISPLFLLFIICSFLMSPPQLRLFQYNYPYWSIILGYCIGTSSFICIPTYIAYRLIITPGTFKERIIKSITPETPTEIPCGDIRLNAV
Chain of GluN1/GluN2A (Q00959 23-1464, other chains not shown): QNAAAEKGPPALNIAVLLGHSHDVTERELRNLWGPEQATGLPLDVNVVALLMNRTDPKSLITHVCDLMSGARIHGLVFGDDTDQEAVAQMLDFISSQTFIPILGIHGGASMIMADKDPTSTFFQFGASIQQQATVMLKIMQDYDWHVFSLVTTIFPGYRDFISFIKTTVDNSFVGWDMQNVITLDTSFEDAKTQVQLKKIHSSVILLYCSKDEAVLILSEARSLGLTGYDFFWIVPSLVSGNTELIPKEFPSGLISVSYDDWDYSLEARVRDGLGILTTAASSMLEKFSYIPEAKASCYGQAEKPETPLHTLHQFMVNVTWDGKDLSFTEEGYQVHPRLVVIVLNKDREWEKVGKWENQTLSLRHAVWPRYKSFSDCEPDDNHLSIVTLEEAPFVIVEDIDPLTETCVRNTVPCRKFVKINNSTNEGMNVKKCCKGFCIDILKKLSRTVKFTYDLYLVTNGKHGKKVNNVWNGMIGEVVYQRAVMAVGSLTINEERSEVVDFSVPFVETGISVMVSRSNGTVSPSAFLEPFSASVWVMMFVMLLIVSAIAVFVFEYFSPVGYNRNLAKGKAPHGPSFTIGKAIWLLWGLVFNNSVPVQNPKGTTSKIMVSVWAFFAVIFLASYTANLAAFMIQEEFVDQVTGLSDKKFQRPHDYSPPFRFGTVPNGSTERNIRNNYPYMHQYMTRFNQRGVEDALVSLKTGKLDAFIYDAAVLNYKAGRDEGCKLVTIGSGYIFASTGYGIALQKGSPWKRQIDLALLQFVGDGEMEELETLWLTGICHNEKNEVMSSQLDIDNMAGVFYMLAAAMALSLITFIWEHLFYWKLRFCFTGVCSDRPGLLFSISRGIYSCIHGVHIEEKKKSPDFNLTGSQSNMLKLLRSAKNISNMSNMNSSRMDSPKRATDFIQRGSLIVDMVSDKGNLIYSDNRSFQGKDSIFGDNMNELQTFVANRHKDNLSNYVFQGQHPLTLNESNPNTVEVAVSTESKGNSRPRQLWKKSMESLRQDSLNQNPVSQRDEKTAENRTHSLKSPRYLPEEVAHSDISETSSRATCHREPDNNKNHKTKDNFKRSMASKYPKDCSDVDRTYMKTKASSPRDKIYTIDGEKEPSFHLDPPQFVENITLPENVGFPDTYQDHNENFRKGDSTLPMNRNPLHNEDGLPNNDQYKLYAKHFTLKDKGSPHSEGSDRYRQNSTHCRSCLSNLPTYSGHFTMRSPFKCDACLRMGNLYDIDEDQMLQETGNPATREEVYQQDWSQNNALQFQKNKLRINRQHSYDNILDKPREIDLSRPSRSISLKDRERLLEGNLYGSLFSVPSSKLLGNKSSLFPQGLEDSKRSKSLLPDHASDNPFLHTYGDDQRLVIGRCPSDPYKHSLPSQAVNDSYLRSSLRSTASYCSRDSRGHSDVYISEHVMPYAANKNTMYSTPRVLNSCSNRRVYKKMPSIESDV
T1 sequence (Q9R0C9 whole entry): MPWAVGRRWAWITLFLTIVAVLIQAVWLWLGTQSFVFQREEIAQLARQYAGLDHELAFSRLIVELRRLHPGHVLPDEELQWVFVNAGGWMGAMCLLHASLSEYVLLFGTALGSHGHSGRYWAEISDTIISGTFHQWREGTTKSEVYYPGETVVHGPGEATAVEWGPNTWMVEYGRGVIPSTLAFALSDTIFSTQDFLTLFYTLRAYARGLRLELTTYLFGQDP
T9 sequence (P14416 whole entry): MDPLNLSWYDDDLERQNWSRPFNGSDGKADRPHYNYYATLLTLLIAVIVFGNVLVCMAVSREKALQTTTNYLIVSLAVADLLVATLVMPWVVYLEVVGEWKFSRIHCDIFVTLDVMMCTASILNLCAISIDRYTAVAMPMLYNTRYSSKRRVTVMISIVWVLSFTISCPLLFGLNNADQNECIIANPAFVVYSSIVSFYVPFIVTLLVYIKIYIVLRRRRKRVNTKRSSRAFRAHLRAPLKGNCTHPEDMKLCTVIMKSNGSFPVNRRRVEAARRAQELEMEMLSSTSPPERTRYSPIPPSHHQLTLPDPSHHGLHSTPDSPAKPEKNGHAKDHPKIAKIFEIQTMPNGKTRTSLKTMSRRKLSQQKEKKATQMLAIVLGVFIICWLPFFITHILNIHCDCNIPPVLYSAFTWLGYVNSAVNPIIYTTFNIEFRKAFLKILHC
T6 sequence (P28223 whole entry): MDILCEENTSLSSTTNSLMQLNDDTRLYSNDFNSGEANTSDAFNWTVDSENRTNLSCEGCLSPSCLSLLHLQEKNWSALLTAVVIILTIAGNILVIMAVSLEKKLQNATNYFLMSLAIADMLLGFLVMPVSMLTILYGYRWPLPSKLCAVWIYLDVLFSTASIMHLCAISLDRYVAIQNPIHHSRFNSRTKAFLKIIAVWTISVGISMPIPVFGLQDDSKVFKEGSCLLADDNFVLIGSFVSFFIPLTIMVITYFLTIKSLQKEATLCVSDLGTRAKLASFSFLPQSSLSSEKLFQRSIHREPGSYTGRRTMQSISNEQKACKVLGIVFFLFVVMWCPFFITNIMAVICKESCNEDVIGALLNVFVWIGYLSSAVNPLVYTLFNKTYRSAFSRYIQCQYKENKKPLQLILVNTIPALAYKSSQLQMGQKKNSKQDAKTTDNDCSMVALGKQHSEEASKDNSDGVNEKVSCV
T4 sequence (P23975 whole entry): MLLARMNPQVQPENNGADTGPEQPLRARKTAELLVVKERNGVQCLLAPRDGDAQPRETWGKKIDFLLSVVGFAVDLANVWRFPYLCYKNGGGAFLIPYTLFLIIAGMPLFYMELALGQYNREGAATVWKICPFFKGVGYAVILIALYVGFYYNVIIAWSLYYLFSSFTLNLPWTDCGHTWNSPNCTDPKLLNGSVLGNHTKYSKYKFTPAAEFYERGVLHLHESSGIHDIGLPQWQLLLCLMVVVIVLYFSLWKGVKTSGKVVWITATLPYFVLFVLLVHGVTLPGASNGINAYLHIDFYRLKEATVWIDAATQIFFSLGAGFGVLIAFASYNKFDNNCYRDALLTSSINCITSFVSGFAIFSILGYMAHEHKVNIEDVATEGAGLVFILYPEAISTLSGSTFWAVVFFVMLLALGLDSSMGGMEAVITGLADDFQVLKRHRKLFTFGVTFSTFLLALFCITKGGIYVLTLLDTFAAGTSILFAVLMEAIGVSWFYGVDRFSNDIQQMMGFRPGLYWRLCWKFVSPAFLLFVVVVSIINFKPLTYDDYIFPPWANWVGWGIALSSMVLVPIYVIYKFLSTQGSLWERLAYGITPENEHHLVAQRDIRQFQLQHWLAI
T5 sequence (P21728 whole entry): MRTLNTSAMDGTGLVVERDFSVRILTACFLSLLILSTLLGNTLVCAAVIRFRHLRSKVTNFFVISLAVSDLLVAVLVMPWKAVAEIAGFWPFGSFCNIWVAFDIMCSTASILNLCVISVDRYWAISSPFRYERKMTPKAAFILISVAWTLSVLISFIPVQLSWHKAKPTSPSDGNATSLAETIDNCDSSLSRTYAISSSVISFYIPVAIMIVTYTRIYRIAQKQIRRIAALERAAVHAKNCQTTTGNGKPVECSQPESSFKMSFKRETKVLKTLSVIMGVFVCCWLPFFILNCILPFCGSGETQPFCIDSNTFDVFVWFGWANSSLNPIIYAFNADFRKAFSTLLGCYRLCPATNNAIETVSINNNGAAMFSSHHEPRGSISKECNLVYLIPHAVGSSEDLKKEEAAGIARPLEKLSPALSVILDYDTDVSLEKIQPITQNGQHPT
T10 sequence (Q5U3Y7 whole entry): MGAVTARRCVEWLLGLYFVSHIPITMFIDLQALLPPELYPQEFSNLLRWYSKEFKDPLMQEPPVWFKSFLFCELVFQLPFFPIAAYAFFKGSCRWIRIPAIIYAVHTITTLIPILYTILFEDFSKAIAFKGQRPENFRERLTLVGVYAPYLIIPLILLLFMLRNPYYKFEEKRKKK

In the case of `Fc1ccc(C2(NCCCOC3CCCCO3)CC3CCC2C3)cc1` (stereo not shown) [ZA-II-05], the NPT (Non-protein thiol (NPT); [10]) is reported as 26.98±5.89 nmoles/mg protein, the NPT (Non-protein thiol (NPT); mouse, in vivo) is reported as 29.06±3.80 nmoles/mg protein and the Ki (Sigma1) is reported as > 10 µM. The activity in vivo [1] was “fully active”, the Ki [2] was > 10 µM and the “VIT. C” value (Vitamin C; [10]) was 0.17±0.02 nmoles/mg protein. The “VIT. C” value (Vitamin C; mouse, in vivo) was 0.20±0.04 nmoles/mg protein, the THIOL (total thiol (PT); [10]) was 28.62±6.72 nmoles/mg/protein and the THIOL (total thiol (PT); mouse, in vivo) was 25.06±4.68 nmoles/mg/protein. For the same compound, the “difference in affinity GluN1/GluN2A vs GluN1/GluN2B” value (GluN1/GluN2A) was “No significant difference in affinity”, the “cell death in vanadium-treated hippocampal slices (propidium iodide uptake)” value [3] was “gradual reduction in cell death with increasing concentrations” and the “concentration of peak protection against vanadium-induced cell death” value [3] was 100 µM. The “dendritic length and arborization (Golgi stain)” value [4] was “successfully reversed these dendritic changes induced by vanadium neurotoxicity”, the TNF-α expression ([5]; ZA-II-05 only 100 mg/kg, all brain regions vs other groups) was “upregulated the expression of TNF-α significantly (p < 0.05) in all the brain regions” and the “cytoplasmic TNF-α expression” value ([5]; […] + ZA-II-05-treated groups vs […] group) was “reduced cytoplasmic TNF-α expression compared to vanadium group”. The H2O2 (H2O2) was 38.89±2.67 and 46.02±0.29, the Ki (µ-opioid receptors (MOR)) was 3.04 µM and the Ki [6] was > 10 µM. The “NeuN viable cells / neuronal number” value (NeuN; ZA-II-05 only 100 mg/kg (ZA treatment only), CA1 and PFC) was “decreased viable cells in CA1 but increased neuronal number and vitality in the prefrontal cortex”, the “NeuN cellular pathology, prefrontal cortex” value (NeuN; mouse, in vivo, 100 mg/kg) was “significantly less cellular pathology in the prefrontal cortex compared to the vanadium-exposed groups” and the “NeuN, loss of apical dendrites of pyramidal cells, CA1” value (NeuN; mouse, in vivo, 100 mg/kg) was “reversal effect relative to the vanadium-exposed group”. For the same compound, the “NeuN, neuronal degeneration of pyramidal cells, CA3” value (NeuN; mouse, in vivo, 100 mg/kg) was “reversal effect with reduced cellular toxicity”, the “astrocyte reactivity (GFAP)” value (GFAP) was “attenuation of astrocyte reactivity” and the NO (nitric oxide (NO); [10]) was 0.34±0.03 μmole/mg protein. The NO (nitric oxide (NO); mouse, in vivo) was 0.32±0.03 μmole/mg protein, the Ki (Dopamine 1 (D1)) was > 10 µM and the Ki (5-HT2A) was > 10 µM. For the same compound, the “expression of myelin content (MBP)” value [7] was “significantly higher expression of myelin content and preservation of axonal dendritic integrity in the deep cortical layers”, the Ki (κ-opioid receptors (KOR)) was 1.24 µM and the Ki [8] was 3.16 µM. The “microglial activation (IBA1)” value (IBA1) was “quiescence and recovery from activation”, the Ki (D2) was > 10 µM and the “locomotion and motor coordination” value [9] was “enhanced locomotion and improved motor coordination”. For the same compound, the Ki (Sigma2) was 0.0055 µM.
